Source: EP4700027A1, “CRYSTALLINE FORM OF NITROGEN-CONTAINING TETRACYCLIC COMPOUND AND PREPARATION METHOD THEREFOR” (Jiangsu Hengrui Pharmaceuticals Co., Ltd., priority 2023, dated 2024)

Experiments:
[1] = Influencing factor stability study on crystal forms (light, high temperature, high humidity, 30 days); assay type: physicochemical
[2] = Dynamic vapor sorption (DVS) hygroscopicity testing; assay type: physicochemical
From the text: According to the description of hygroscopicity characteristics and the definitions of hygroscopic weight gains in "General Rule 9103, Guidelines for Hygroscopicity Trials for Pharmaceuticals" in the Chinese Pharmacopoeia, Volume IV, 2015 Edition, • deliquescent: sufficient water is absorbed to form a liquid; • extremely hygroscopic: the hygroscopic weight gain is not less than 15%; • hygroscopic: the hygroscopic weight gain is less than 15% but not less than 2%; • slightly hygroscopic: the hygroscopic weight gain is less than 2% but not less than 0.2%; nonhygroscopic or practically nonhygroscopic: the hygroscopic weight gain is less than 0.2%.
DVS refers to dynamic vapor sorption: The analysis was performed using SMS DVS Advantage; at 25 °C, the humidity was changed as follows: 50%-95%-0%-95%-50%, in steps of 10% (5% for the last step) (specific humidity ranges are shown in corresponding patterns, and those listed here were used in most cases); the criterion was dm/dt being not greater than 0.002%.

[3] = Light exposure (4500 Lux), 5 days
[4] = Light exposure (4500 Lux), 10 days
[5] = Light exposure (4500 Lux), 30 days
[6] = Light exposure (4500 Lux), 7 days
[7] = Light exposure (4500 Lux), 14 days

## C=CC(=O)N1CCN2C(=O)c3cc(F)c(-c4ccc(F)c5sc(N)c(C#N)c45)c4c(Cl)nn(c34)CC[C@H]2C1 [crystal form C]
[1]; 40 °C, 5 days
  Color and state: Off-white solid
  Crystal form: Did not change
  Purity (%): 98.0%
[1]; 40 °C, 10 days
  Color and state: Off-white solid
  Crystal form: Did not change
  Purity (%): 97.6%
[1]; 40 °C, 30 days
  Color and state: Off-white solid
  Crystal form: Did not change
  Purity (%): 97.2%
[1]; 60 °C, 5 days
  Color and state: Off-white solid
  Crystal form: Did not change
  Purity (%): 98.0%
[1]; 60 °C, 10 days
  Color and state: Off-white solid
  Crystal form: Did not change
  Purity (%): 97.9%
[1]; 60 °C, 30 days
  Color and state: Off-white solid
  Crystal form: Did not change
  Purity (%): 97.5%
[1]; 75% RH, 5 days
  Color and state: Off-white solid
  Crystal form: Did not change
  Purity (%): 98.1%
[1]; 75% RH, 10 days
  Color and state: Off-white solid
  Crystal form: Did not change
  Purity (%): 98.1%
[1]; 75% RH, 30 days
  Color and state: Off-white solid
  Crystal form: Did not change
  Purity (%): 98.1%
[1]; 92.5% RH, 5 days
  Color and state: Off-white solid
  Crystal form: Did not change
  Purity (%): 98.1%
[1]; 92.5% RH, 10 days
  Color and state: Off-white solid
  Crystal form: Did not change
  Purity (%): 98.1%
[1]; 92.5% RH, 30 days
  Color and state: Off-white solid
  Crystal form: Did not change
  Purity (%): 98.1%
[1]; Initial, 0 days
  Color and state: Off-white solid
  Crystal form: Crystal form C
  Purity (%): 98.2%
[1]; [3]
  Color and state: Off-white solid
  Crystal form: Did not change
  Purity (%): 98.0%
[1]; [4]
  Color and state: Off-white solid
  Crystal form: Did not change
  Purity (%): 97.9%
[1]; [5]
  Color and state: Off-white solid
  Crystal form: Did not change
  Purity (%): 97.5%

## C=CC(=O)N1CCN2C(=O)c3cc(F)c(-c4ccc(F)c5sc(N)c(C#N)c45)c4c(Cl)nn(c34)CC[C@H]2C1 [crystal form F]
[2]; accelerated experimental conditions (70% RH)
  hygroscopic weight gain: about 6.44%
[2]; after DVS testing
  crystal form re-identified after DVS testing: did not change
[2]; extreme conditions (90% RH)
  hygroscopic weight gain: about 6.65%
[2]; humidity changing from 0% to 95% RH
  desorption process of the sample versus its adsorption process: did not overlap
[2]; normal storage conditions (25 °C and 60% RH)
  hygroscopic weight gain: about 6.35%
[1]; 40 °C, 5 days
  Color and state: Off-white solid
  Crystal form: Did not change
  Purity (%): 97.8%
[1]; 40 °C, 10 days
  Color and state: Off-white solid
  Crystal form: Did not change
  Purity (%): 97.5%
[1]; 40 °C, 30 days
  Color and state: Off-white solid
  Crystal form: Did not change
  Purity (%): 96.7%
[1]; 60 °C, 5 days
  Color and state: Off-white solid
  Crystal form: Did not change
  Purity (%): 97.8%
[1]; 60 °C, 10 days
  Color and state: Off-white solid
  Crystal form: Did not change
  Purity (%): 97.7%
[1]; 60 °C, 30 days
  Color and state: Off-white solid
  Crystal form: Did not change
  Purity (%): 97.3%
[1]; 75% RH, 5 days
  Color and state: Off-white solid
  Crystal form: Did not change
  Purity (%): 97.9%
[1]; 75% RH, 10 days
  Color and state: Off-white solid
  Crystal form: Did not change
  Purity (%): 97.9%
[1]; 75% RH, 30 days
  Color and state: Off-white solid
  Crystal form: Did not change
  Purity (%): 97.9%
[1]; 92.5% RH, 5 days
  Color and state: Off-white solid
  Crystal form: Did not change
  Purity (%): 97.9%
[1]; 92.5% RH, 10 days
  Color and state: Off-white solid
  Crystal form: Did not change
  Purity (%): 97.9%
[1]; 92.5% RH, 30 days
  Color and state: Off-white solid
  Crystal form: Did not change
  Purity (%): 97.9%
[1]; Initial, 0 days
  Color and state: Off-white solid
  Crystal form: Crystal form F
  Purity (%): 97.9%
[1]; [3]
  Color and state: Off-white solid
  Crystal form: Did not change
  Purity (%): 97.8%
[1]; [4]
  Color and state: Off-white solid
  Crystal form: Did not change
  Purity (%): 97.8%
[1]; [5]
  Color and state: Off-white solid
  Crystal form: Did not change
  Purity (%): 97.7%

## C=CC(=O)N1CCN2C(=O)c3cc(F)c(-c4ccc(F)c5sc(N)c(C#N)c45)c4c(Cl)nn(c34)CC[C@H]2C1 [crystal form H]
[1]; 40 °C, 7 days
  Color and state: Off-white solid
  Crystal form: Did not change
  Purity (%): 98.2%
[1]; 40 °C, 14 days
  Color and state: Off-white solid
  Crystal form: Did not change
  Purity (%): 98.1%
[1]; 40 °C, 30 days
  Color and state: Off-white solid
  Crystal form: Did not change
  Purity (%): 97.7%
[1]; 60 °C, 7 days
  Color and state: Off-white solid
  Crystal form: Did not change
  Purity (%): 98.3%
[1]; 60 °C, 14 days
  Color and state: Off-white solid
  Crystal form: Did not change
  Purity (%): 98.2%
[1]; 60 °C, 30 days
  Color and state: Off-white solid
  Crystal form: Did not change
  Purity (%): 97.7%
[1]; 75% RH, 7 days
  Color and state: Off-white solid
  Crystal form: Did not change
  Purity (%): 98.4%
[1]; 75% RH, 14 days
  Color and state: Off-white solid
  Crystal form: Did not change
  Purity (%): 98.3%
[1]; 75% RH, 30 days
  Color and state: Off-white solid
  Crystal form: Did not change
  Purity (%): 98.4%
[1]; 92.5% RH, 7 days
  Color and state: Off-white solid
  Crystal form: Did not change
  Purity (%): 98.3%
[1]; 92.5% RH, 14 days
  Color and state: Off-white solid
  Crystal form: Did not change
  Purity (%): 98.3%
[1]; 92.5% RH, 30 days
  Color and state: Off-white solid
  Crystal form: Did not change
  Purity (%): 98.3%
[1]; Initial, 0 days
  Color and state: Off-white solid
  Crystal form: Crystal form H
  Purity (%): 98.3%
[1]; [6]
  Color and state: Off-white solid
  Crystal form: Did not change
  Purity (%): 97.8%
[1]; [7]
  Color and state: Off-white solid
  Crystal form: Did not change
  Purity (%): 96.8%
[1]; [5]
  Color and state: Off-white solid
  Crystal form: Did not change
  Purity (%): 94.0%

## C=CC(=O)N1CCN2C(=O)c3cc(F)c(-c4ccc(F)c5sc(N)c(C#N)c45)c4c(Cl)nn(c34)CC[C@H]2C1 [crystal form L]
[1]; 40 °C, 7 days
  Color and state: Off-white solid
  Crystal form: Did not change
  Purity (%): 99.1%
[1]; 40 °C, 14 days
  Color and state: Off-white solid
  Crystal form: Did not change
  Purity (%): 99.0%
[1]; 40 °C, 30 days
  Color and state: Off-white solid
  Crystal form: Did not change
  Purity (%): 98.9%
[1]; 60 °C, 7 days
  Color and state: Off-white solid
  Crystal form: Did not change
  Purity (%): 99.1%
[1]; 60 °C, 14 days
  Color and state: Off-white solid
  Crystal form: Did not change
  Purity (%): 99.0%
[1]; 60 °C, 30 days
  Color and state: Off-white solid
  Crystal form: Did not change
  Purity (%): 98.9%
[1]; 75% RH, 7 days
  Color and state: Off-white solid
  Crystal form: Did not change
  Purity (%): 99.1%
[1]; 75% RH, 14 days
  Color and state: Off-white solid
  Crystal form: Did not change
  Purity (%): 99.1%
[1]; 75% RH, 30 days
  Color and state: Off-white solid
  Crystal form: Did not change
  Purity (%): 99.1%
[1]; 92.5% RH, 7 days
  Color and state: Off-white solid
  Crystal form: Did not change
  Purity (%): 99.1%
[1]; 92.5% RH, 14 days
  Color and state: Off-white solid
  Crystal form: Did not change
  Purity (%): 99.1%
[1]; 92.5% RH, 30 days
  Color and state: Off-white solid
  Crystal form: Did not change
  Purity (%): 99.1%
[1]; Initial, 0 days
  Color and state: Off-white solid
  Crystal form: Crystal form L
  Purity (%): 99.1%
[1]; [6]
  Color and state: Off-white solid
  Crystal form: Did not change
  Purity (%): 98.6%
[1]; [7]
  Color and state: Off-white solid
  Crystal form: Did not change
  Purity (%): 98.2%
[1]; [5]
  Color and state: Off-white solid
  Crystal form: Did not change
  Purity (%): 98.3%
